Counter-ions that a name gives are not always drawn.
How the values were obtained:
[1] = target: human dopamine D3 receptor (Homo sapiens, UniProt P35462); test: Displacement of [3H] 7 OH-DPAT binding to membranes of CHO cells expressing human dopamine D3 receptor; settings: [3H] 7 OH-DPAT 0.4 nM, CHO cell membranes, cloned human D3 receptor
Procedure: The inhibition constants (Ki) of test compounds were measured by displacement of [^3H] 7 OH-DPAT binding to membrane preparations from Chinese hamster ovary cells expressing human dopamine D3 receptor. Cells expressing the human D3 receptor were homogenized with Polytron and centrifuged for 10 min at 4° C. at 20,000 RPM in a Sorvall RCB5 centrifuge with a SS34 rotor. After repeating the washing once more, the pellet was resuspended in buffer consisting of 120 mM NaCl, 5 mM KCl, 5 mM MgCl2, 2 mM CaCl2 and 50 mM tris, pH 7.4 and the protein content determined using bovine serum albumin as a standard (Bradford, M. M. (1976) Anal. Biochem. 72, 248–254). Compounds at varying concentrations were incubated with the membrane preparations in the presence of 0.4 nM [^3H] 7 OH-DPAT. The assay was incubated for 15 min at 37° C. and the reaction was terminated by rapid filtration with 50 mM Tris pH 7.4, through GF/B filters previously soaked in 0.5% polyethyleneimine. Filters were dried overnight and counted in Betaplate Scintillation counter. Non-specific binding was defined as the radioligand binding remaining after incubation in the presence of 10 μM butacomol. For competition curves, seven concentrations (single log dilutions) of competing unlabeled, compounds were used. Competition curves were analysed simultaneously whenever possible using non-linear least-squares fitting procedures, capable of fitting one, two or three site models.

dopamine D2 receptor = dopamine D2 receptor (Homo sapiens, UniProt P14416); test: Dopamine D2 receptor binding (Binding data table)
Sequence of dopamine D2 receptor (P14416 whole entry, species assumed): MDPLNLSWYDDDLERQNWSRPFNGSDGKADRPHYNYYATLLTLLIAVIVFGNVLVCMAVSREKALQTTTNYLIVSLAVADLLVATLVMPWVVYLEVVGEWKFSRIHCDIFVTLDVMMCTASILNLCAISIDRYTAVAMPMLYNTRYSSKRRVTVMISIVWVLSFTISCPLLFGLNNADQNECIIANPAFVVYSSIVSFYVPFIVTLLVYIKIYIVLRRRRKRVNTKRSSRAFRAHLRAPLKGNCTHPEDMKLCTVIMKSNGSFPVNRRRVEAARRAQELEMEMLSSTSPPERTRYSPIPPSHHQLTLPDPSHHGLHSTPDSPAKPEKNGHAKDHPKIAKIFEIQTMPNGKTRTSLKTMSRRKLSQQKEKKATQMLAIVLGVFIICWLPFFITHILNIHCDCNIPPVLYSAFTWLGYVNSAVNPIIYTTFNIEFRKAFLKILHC

Sequence of human dopamine D3 receptor (P35462 whole entry): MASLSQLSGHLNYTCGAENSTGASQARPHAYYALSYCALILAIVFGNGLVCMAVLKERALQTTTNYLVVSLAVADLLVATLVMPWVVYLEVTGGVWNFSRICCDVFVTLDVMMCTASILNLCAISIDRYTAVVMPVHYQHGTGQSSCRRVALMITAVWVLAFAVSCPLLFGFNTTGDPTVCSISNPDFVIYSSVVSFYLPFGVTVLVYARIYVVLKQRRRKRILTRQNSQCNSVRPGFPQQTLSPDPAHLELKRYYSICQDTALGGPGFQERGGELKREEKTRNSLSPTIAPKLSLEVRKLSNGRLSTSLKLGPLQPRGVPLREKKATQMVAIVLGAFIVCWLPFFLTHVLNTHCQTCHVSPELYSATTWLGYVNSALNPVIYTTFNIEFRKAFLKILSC

Ki [1] [nM]	Ki (dopamine D2 receptor) [nM]	Compound
16	> 770	Cc1cccc(C)c1C(=O)NCC1CC1CN1CCN(c2cc(C(F)(F)F)nc(C(C)(C)C)n2)CC1 (racemic) [N-{(Z)-2-[4-(2-tert-Butyl-6-trifluoromethyl-pyrimidin-4-yl)-piperazin-1-ylmethyl]-cyclopropylmethyl}-2,6-dimethyl-benzamide, dihydrochloride salt]
31	> 740	CC(C)(C)c1nc(N2CCN(CC3CC3CNC(=O)c3ccc(Cl)cc3)CC2)cc(C(F)(F)F)n1 (racemic) [[Z](+/−)N-{2-[4-(2-tert-Butyl-6-trifluoromethyl-pyrimidin-4-yl)-piperazin-1-ylmethyl]-cyclopropylmethyl}-4-chloro-benzamide]
2	76	Cc1cccc(C)c1C(=O)NCC1CC1CN1CCN(c2cccc(C(F)(F)F)c2)CC1 (single isomer, unassigned) [2,6-Dimethyl-N-{(E)-2-[4-(3-trifluoromethyl-phenyl)-piperazin-1-ylmethyl]-cyclopropylmethyl}benzamide]
5	460	Cc1cccc(C)c1C(=O)NCC1CC1CN1CCN(c2cccc(C(F)(F)F)c2)CC1 (single isomer, unassigned) [2,6-Dimethyl-N-{(Z)-2-[4-(3-trifluoromethyl-phenyl)-piperazin-1-ylmethyl]-cyclopropylmethyl}benzamide]
